How the values were obtained:
Assay type in all cases: in vivo
[1] = system: canarygrass (Phalaris minor); test: Test B postemergence plant response; details: Postemergence
Summary of the method: (§1)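 Plants at the 1- to 4-leaf stage (2 to 18 cm tall), grown in pots of peat moss/vermiculite medium with wetting agent and starter nutrients, received postemergence applications of test chemicals. After 13 to 15 days in a greenhouse, injury was rated visually against untreated controls on a 0 (no effect) to 100 (complete control) scale.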

[2] = system: chickweed (Stellaria media); test: Test B postemergence plant response; details: Postemergence
Summary of the method: as §1

[3] = system: windgrass (Apera spica-venti); test: Test B postemergence plant response; details: Postemergence
Summary of the method: as §1

[4] = system: winter barley (Hordeum vulgare); test: Test B postemergence plant response; details: Postemergence
Summary of the method: as §1

[5] = system: wild oat (Avena fatua); test: Test B pre-/postemergence plant response
Summary of the method: (§2)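 Ratings reflect visual comparison with untreated controls 13 to 15 days after application, from 0 (no effect) to 100 (complete control). Application was preemergence to seeded loam/sand soil or postemergence to 1- to 4-leaf plants, with compound in a non-phytotoxic, surfactant-containing solvent.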

[6] = system: pigweed (Amaranthus retroflexus); test: Test B pre-/postemergence plant response
Summary of the method: as §2

[7] = system: sunflower (common oilseed sunflower, Helianthus annuus); test: Test B pre-/postemergence plant response; details: Preemergence
Summary of the method: as §2

[8] = system: nightshade (eastern black nightshade, Solanum ptycanthum); test: Test B pre-/postemergence plant response; details: Preemergence
Summary of the method: as §2

[9] = system: galium (catchweed bedstraw, Galium aparine); test: Test B pre-/postemergence plant response
Summary of the method: as §2

[10] = system: rice (Oryza sativa); test: Test B flooded paddy test; details: for Plant response rating, Flood, Rice: 250 g ai/ha, flooded paddy test, visual rating on 0 to 100 scale (0 no effect, 100 complete control) after 13 to 15 days; for Plant response rating, Rice: Flood (flooded paddy test), 13 to 15 days
Summary of the method: (§3)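 Greenhouse-held for 13 to 15 days, treated pots were compared visually with controls and scored 0–100 (0, no effect). Treatment had been made into paddy water kept at 3 cm above the soil, with plants at the 2-leaf stage.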

[11] = system: ducksalad (Heteranthera limosa); test: Test B flooded paddy test; details: for Plant response rating, Flood, Ducksalad: 250 g ai/ha, flooded paddy test, visual rating on 0 to 100 scale (0 no effect, 100 complete control) after 13 to 15 days; for Plant response rating, Ducksalad: Flood (flooded paddy test), 13 to 15 days
Summary of the method: as §3

[12] = system: barnyardgrass (Echinochloa crus-galli); test: Test B flooded paddy test; details: for Plant response rating, Flood, Barnyardgrass: 250 g ai/ha, flooded paddy test, visual rating on 0 to 100 scale (0 no effect, 100 complete control) after 13 to 15 days; for Plant response rating, Barnyardgrass: Flood (flooded paddy test), 13 to 15 days
Summary of the method: as §3

[13] = system: umbrella sedge (Cyperus difformis); test: Test B flooded paddy test; details: for Plant response rating, Flood, Sedge, Umbrella: 250 g ai/ha, flooded paddy test, visual rating on 0 to 100 scale (0 no effect, 100 complete control) after 13 to 15 days; for Plant response rating, Sedge, Umbrella: Flood (flooded paddy test), 13 to 15 days
Summary of the method: as §3

[14] = system: goosegrass (Eleusine indica); test: Test B pre-/postemergence plant response; details: Preemergence, 62 g ai/ha; scale 0 to 100, 0 no effect, 100 complete control
[15] = system: Russian thistle (Salsola kali); test: Test B pre-/postemergence plant response; details: Preemergence
Summary of the method: as §2

[16] = 31 g ai/ha, scale 0 to 100 (0 no effect, 100 complete control)
[17] = 62 g ai/ha, scale 0 (no effect) to 100 (complete control), 13 to 15 days
[18] = 125 g ai/ha, visual rating after 13 to 15 days, scale 0 (no effect) to 100 (complete control)
[19] = 250 g ai/ha, Preemergence, 0 to 100 scale
[20] = Postemergence, 31 g ai/ha, scale 0 to 100 (0 no effect, 100 complete control)
[21] = Postemergence, 62 g ai/ha, scale 0 (no effect) to 100 (complete control), 13 to 15 days
[22] = Postemergence, 125 g ai/ha, visual rating after 13 to 15 days, scale 0 (no effect) to 100 (complete control)
[23] = Postemergence, 250 g ai/ha, scale 0 to 100
[24] = Preemergence, 31 g ai/ha, scale 0 to 100 (0 no effect, 100 complete control)
[25] = Preemergence, 62 g ai/ha, scale 0 to 100, 0 no effect, 100 complete control
[26] = Preemergence, 125 g ai/ha, 0 to 100 scale
[27] = 62 g ai/ha, scale 0 to 100, 0 no effect, 100 complete control
[28] = 31 g ai/ha, scale of 0 to 100 where 0 is no effect and 100 is complete control
[29] = 62 g ai/ha, scale 0 to 100, 0 is no effect, 100 is complete control
[30] = 125 g ai/ha, scale 0 to 100, 0 is no effect, 100 is complete control
[31] = 31 g ai/ha, 0 to 100 scale (0 no effect, 100 complete control)
[32] = 125 g ai/ha, scale 0 to 100 (0 no effect, 100 complete control)
[33] = 250 g ai/ha, scale 0 to 100 (0 no effect, 100 complete control), 13 to 15 days
[34] = 62 g ai/ha, scale 0 to 100 (0 no effect, 100 complete control)
[35] = Postemergence, 31 g ai/ha, 0 to 100 scale (0 no effect, 100 complete control)
[36] = Postemergence, 250 g ai/ha, scale 0 to 100 (0 no effect, 100 complete control), 13 to 15 days
[37] = Postemergence, 62 g ai/ha, scale 0 to 100 (0 no effect, 100 complete control)
[38] = Preemergence, 125 g ai/ha, scale 0 to 100, 0 no effect, 100 complete control
[39] = Preemergence, 250 g ai/ha, 0 to 100 scale
[40] = 125 g ai/ha, scale 0 to 100, 0 no effect, 100 complete control
[41] = 62 g ai/ha, scale of 0 to 100 where 0 is no effect and 100 is complete control
[42] = Flood, 31 g ai/ha, scale 0 to 100 (0 no effect, 100 complete control)

## 2-(3,5-difluorophenyl)-5-[(2-hydroxy-4-oxobicyclo[3.2.1]oct-2-en-3-yl)carbonyl]-3-(2-methoxyethyl)-4(3H)-pyrimidinone [Compound 243]
[1]; [16]
  Plant response rating, Canarygrass: 5
[1]; [17]
  Plant response rating, Canarygrass: 25
[1]; [18]
  Plant response rating, Canarygrass: 50
[1]; 250 g ai/ha, scale 0 to 100
  Canarygrass plant response rating: 60
[2]; [16]
  Plant response rating, Chickweed: 20
[2]; [17]
  Plant response rating, Chickweed: 85
[2]; [18]
  Plant response rating, Chickweed: 95
[2]; 250 g ai/ha, scale 0 to 100
  Chickweed plant response rating: 98
[3]; [16]
  Plant response rating, Windgrass: 50
[3]; [17]
  Plant response rating, Windgrass: 55
[3]; [18]
  Plant response rating, Windgrass: 60
[3]; 250 g ai/ha, scale 0 to 100
  Windgrass plant response rating: 80
[4]; [16]
  Plant response rating, Barley: 0
[4]; [17]
  Plant response rating, Barley: 0
[4]; 125 g ai/ha, scale 0 to 100 (0 no effect, 100 complete control), 13 to 15 days
  Plant response rating, Barley: 20
[4]; 250 g ai/ha, scale 0 to 100
  Barley plant response rating: 35
[5]; [19]
  Plant response rating, Oat, Wild: 60
[5]; [20]
  Plant response rating, Oat, Wild: 0
[5]; [21]
  Plant response rating, Oat, Wild: 5
[5]; [22]
  Plant response rating, Oat, Wild: 40
[5]; [23]
  Oat, Wild plant response rating: 55
[5]; [24]
  Plant response rating, Oat, Wild: 0
[5]; [25]
  Plant response rating, Oat, Wild: 0
[5]; [26]
  Oat, Wild plant response rating: 0
[6]; [19]
  Plant response rating, Pigweed: 100
[6]; [20]
  Plant response rating, Pigweed: 80
[6]; [21]
  Plant response rating, Pigweed: 85
[6]; [22]
  Plant response rating, Pigweed: 100
[6]; [23]
  Pigweed plant response rating: 100
[6]; [24]
  Plant response rating, Pigweed: 50
[6]; [25]
  Plant response rating, Pigweed: 100
[6]; [26]
  Pigweed plant response rating: 100
[7]; 250 g ai/ha, 0 to 100 scale
  Plant response rating, Sunflower: 98
[7]; [16]
  Plant response rating, Sunflower: 45
[7]; [27]
  Plant response rating, Sunflower: 85
[7]; 125 g ai/ha, 0 to 100 scale
  Sunflower plant response rating: 95
[8]; 250 g ai/ha, 0 to 100 scale
  Plant response rating, Nightshade: 100
[8]; [16]
  Plant response rating, Nightshade: 100
[8]; [27]
  Plant response rating, Nightshade: 100
[8]; 125 g ai/ha, 0 to 100 scale
  Nightshade plant response rating: 100
[9]; [19]
  Plant response rating, Galium: 95
[9]; [24]
  Plant response rating, Galium: 0
[9]; [25]
  Plant response rating, Galium: 40
[9]; [26]
  Galium plant response rating: 60
[10]
  Plant response rating, Flood, Rice: 0
[10]; [28]
  Plant response rating, Rice: 0
[10]; [29]
  Plant response rating, Rice: 0
[10]; [30]
  Plant response rating, Rice: 0
[11]
  Plant response rating, Flood, Ducksalad: 75
[11]; [28]
  Plant response rating, Ducksalad: 0
[11]; [29]
  Plant response rating, Ducksalad: 30
[11]; [30]
  Plant response rating, Ducksalad: 60
[12]
  Plant response rating, Flood, Barnyardgrass: 50
[12]; [28]
  Plant response rating, Barnyardgrass: 0
[12]; [29]
  Plant response rating, Barnyardgrass: 0
[12]; [30]
  Plant response rating, Barnyardgrass: 0
[13]
  Plant response rating, Flood, Sedge, Umbrella: 75
[13]; [28]
  Plant response rating, Sedge, Umbrella: 0
[13]; [29]
  Plant response rating, Sedge, Umbrella: 30
[13]; [30]
  Plant response rating, Sedge, Umbrella: 70
[14]
  Plant response rating, Goosegrass: 98

## CCCCn1c(C2CC2)ncc(C(=O)C2=C(O)CCCC2=O)c1=O [Compound 193]
[1]; [31]
  Plant response rating, Canarygrass: 5
[1]; [32]
  Plant response rating, Canarygrass: 25
[1]; [33]
  Plant response rating, Canarygrass: 25
[1]; [34]
  Plant response rating, Canarygrass: 5
[2]; [31]
  Plant response rating, Chickweed: 95
[2]; [32]
  Plant response rating, Chickweed: 100
[2]; [33]
  Plant response rating, Chickweed: 100
[2]; [34]
  Plant response rating, Chickweed: 98
[3]; [31]
  Plant response rating, Windgrass: 50
[3]; [33]
  Plant response rating, Windgrass: 75
[3]; [34]
  Plant response rating, Windgrass: 70
[4]; [31]
  Plant response rating, Barley: 0
[4]; [32]
  Plant response rating, Barley: 50
[4]; [33]
  Plant response rating, Barley: 50
[4]; [34]
  Plant response rating, Barley: 0
[5]; [35]
  Plant response rating, Oat, Wild: 0
[5]; [36]
  Plant response rating, Oat, Wild: 75
[5]; [37]
  Plant response rating, Oat, Wild: 50
[5]; [24]
  Plant response rating, Oat, Wild: 5
[5]; [25]
  Plant response rating, Oat, Wild: 5
[5]; [38]
  Plant response rating, Oat, Wild: 30
[5]; [39]
  Oat, Wild plant response rating: 60
[15]; [16]
  Plant response rating, Russian Thistle: 90
[15]; [27]
  Plant response rating, Russian Thistle: 98
[15]; [40]
  Plant response rating, Russian Thistle: 100
[15]; 250 g ai/ha, 0 to 100 scale
  Russian Thistle plant response rating: 100
[6]; [35]
  Plant response rating, Pigweed: 90
[6]; [36]
  Plant response rating, Pigweed: 100
[6]; [37]
  Plant response rating, Pigweed: 95
[6]; [24]
  Plant response rating, Pigweed: 98
[6]; [25]
  Plant response rating, Pigweed: 100
[6]; [38]
  Plant response rating, Pigweed: 100
[6]; [39]
  Pigweed plant response rating: 100
[7]; [16]
  Plant response rating, Sunflower: 70
[7]; [27]
  Plant response rating, Sunflower: 80
[7]; [40]
  Plant response rating, Sunflower: 80
[7]; 250 g ai/ha, 0 to 100 scale
  Sunflower plant response rating: 95
[8]; [16]
  Plant response rating, Nightshade: 100
[8]; [27]
  Plant response rating, Nightshade: 100
[8]; [40]
  Plant response rating, Nightshade: 100
[8]; 250 g ai/ha, 0 to 100 scale
  Nightshade plant response rating: 100
[9]; [35]
  Plant response rating, Galium: 75
[9]; Postemergence, 125 g ai/ha, scale 0 to 100 (0 no effect, 100 complete control)
  Plant response rating, Galium: 90
[9]; [36]
  Plant response rating, Galium: 90
[9]; [24]
  Plant response rating, Galium: 75
[9]; [25]
  Plant response rating, Galium: 100
[9]; [38]
  Plant response rating, Galium: 100
[9]; [39]
  Galium plant response rating: 100
[10]
  Plant response rating, Flood, Rice: 65
[10]; [41]
  Plant response rating, Rice: 15
[10]; [30]
  Plant response rating, Rice: 30
[10]; [42]
  Rice plant response rating: 0
[11]
  Plant response rating, Flood, Ducksalad: 100
[11]; [41]
  Plant response rating, Ducksalad: 50
[11]; [30]
  Plant response rating, Ducksalad: 85
[11]; [42]
  Ducksalad plant response rating: 40
[12]
  Plant response rating, Flood, Barnyardgrass: 50
[12]; [41]
  Plant response rating, Barnyardgrass: 20
[12]; [30]
  Plant response rating, Barnyardgrass: 45
[12]; [42]
  Barnyardgrass plant response rating: 0
[13]
  Plant response rating, Flood, Sedge, Umbrella: 90
[13]; [41]
  Plant response rating, Sedge, Umbrella: 30
[13]; [30]
  Plant response rating, Sedge, Umbrella: 70
[13]; [42]
  Sedge, Umbrella plant response rating: 0
